Measurements reported in US4772616A, “Treatment of ocular hypertension and glaucoma with dopamine antagonists” (priority 1987, dated 1988).
“Also recorded” adds a separate entry of the source. Read-outs that look alike come from different tables or passages of the source.

Key:
[1] = tested on: intraocular pressure (IOP); assay: Intraocular pressure (IOP) recovery model in rabbits after hypertonic saline (20% NaCl) infusion; assay type: in vivo, Albino rabbits; settings: for potency in lowering intraocular pressure compared with timolol: FIGS. 1-5; for potency in lowering intraocular pressure compared with pilocarpine and timolol: in vivo
Experimental: Albino rabbits of either sex, weighing 2.25-2.5 kg were used for this intraocular pressure (IOP) recovery model experiment. Hypertonic saline (20% NaCl) was infused into the ear vein at a rate of 1 ml/min. for 10 minutes. The IOP was determined with Mackay-Marg electronic applanation tonometer (Berkeley Bio-Engineering, San Leandro, Calif.) at 0, 5, 10, 15, 20, 40, 60, 80, and every 30 minutes thereafter. The IOP decreased abruptly right after the infusion of hypertonic saline and recovered to normal in approximately 80-110 minutes. Identical experiments were repeated with the same group of animals one week later, wherein addition to the hypertonic saline infusion, haloperidol was instilled into the eyes in the form of 50 μl of an aqueous solution of 0.125 wt % haloperidol.
The procedure performed in Example 1 was carried out in the same manner, except that an aqueous solution of 0.25 wt % haloperidol was employed.
The procedure performed in Example 1 was carried out in the same manner, except that an aqueous solution of 0.25 wt % moperone was used.
The procedure performed in Example 1 was carried out in the same manner, except that an aqueous solution of 0.25 wt % trifluperidol was used.
The procedure performed in Example 1 was carried out in the same manner, except that an aqueous solution of 0.25 wt % L-timolol was used.
The procedure performed in Example 1 was carried out in the same manner, except that an aqueous solution of 0.25 wt % clofluperol was used.
The procedure performed in Example 1 was carried out in the same manner, except that an aqueous solution of 0.25 wt % floropipamide was used.
The procedure performed in Example 1 was carried out in the same manner, except that an aqueous solution of 0.25 wt % lenperone was used.
The procedure performed in Example 1 was carried out in the same manner with the following exceptions: (a) an Alcon electronic applanation tonometer (Alcon Laboratories, Inc., Ft. Worth, Tex.) was used to determine IOP; and (b) an aqueous solution of 0.25 wt % trifluoperazine was used.
The procedure performed in Example 10 was carried out in the same manner, except that an aqueous solution of 0.25 wt % chlorpromazine was used.
The procedure performed in Example 10 was carried out in the same manner, except that an aqueous solution of 0.5 wt % domperidone was used.

[2] = tested on: aqueous humor formation and intraocular pressure; assay: Studies of ability to reduce aqueous humor formation and intraocular pressure in rabbits and cats; settings: rabbit, in vivo
Text: The dopamine antagonists of the present invention have been studied with respect to their ability to reduce aqueous humor formation and intraocular pressure in rabbits and cats. The studies indicate that the compounds are effective in reducing aqueous humor formation and intraocular pressure subsequent to topical and intracameral application.

intraocular pressure = settings: cited from earlier work
[3] = tested on: aqueous humor (AH) dynamics; assay: Cat eye model, aqueous humor (AH) dynamics (rates of AH formation and outflow, blue dextran); assay type: in vivo, cats; settings: 50 μl of 0.5% eye drops
Experimental: The cat eye model was used for the study of haloperidol actions in aqueous humor (AH) dynamics. Briefly, cats of either sex weighing 2.5-4.0 kg were anesthetized with 30 mg/kg of pentobarbital sodium. Systemic blood pressure was monitored through cannulation at the femoral artery and additional pentobarbital was injected via femoral vein. Three needles were put into each eye. The first one was placed in the anterior chamber for the monitoring of IOP. The second one was placed at the posterior chamber for the infusion of AH-like solution containing 0.01% of blue dextran (NaCl, 137; KCl, 4.7; CaCl2, 1.53; MgCl2, 0.67; Na2 HPO4, 0.11 and dextrose, 5.56 mM). The rate of the infusion was adjusted to 38 μl/min. The third one was placed in the anterior chamber to serve as an overflow outlet. The overflown solution passed through a microspectrophotometric cell (ISCO, UA-5, Lincoln, Nebr.) for the detection of changes of blue dextran concentration and through a drop counter (ISCO, Model 328) for the recording of overflow rate.
Haloperidol (50 μl of 0.5% eye drops) was instilled to the eyes when the blue dextran tracings were stabilized (in about 2 hrs. after the initiation of the infusion). The rates of AH formation (rf) and outflow (ro) were calculated as follows: […]

[4] = Systemic absorption after topical instillation to the eye; assay type: in vivo; settings: assuming not more than 10% of topically instilled drug absorbed systemically
[5] = background; cited from earlier work
[6] = background; cited from earlier work; remark: listed apart in the source
[7] = Oryctolagus cuniculus, topical, read-out: Difference in Max Reduction of IOP
[8] = rabbit, 0.25% drug, Alcon electronic applanation tonometer
[9] = rabbit, 0.25 wt % aqueous solution, Alcon tonometer
[10] = rabbit, 0.125% drug, Mackay-Marg tonometer, 50 μl eye instillation
[11] = rabbit, 0.25 wt % aqueous solution
[12] = Oryctolagus cuniculus, topical, rabbit, 0.25% drug, Mackay-Marg tonometer, 100% control IOP 20.2 ± 1.3 mm Hg, 20% saline alone 65 ± 1, read-out: Difference in Max Reduction of IOP
[13] = rabbit, 0.25% drug, Mackay-Marg tonometer, 50 μl eye instillation
[14] = rabbit, 0.25 wt % aqueous solution, Mackay-Marg tonometer

Q: With `CN(C)CCCN1c2ccccc2Sc2ccc(Cl)cc21` [Chlorpromazine] as the compound, how does the response vs control in vivo at 0.25 % [1, 7] read?
A: 52 ± 3%

Q: And the “Time Delay for IOP Recovery Relative to Control” value [1, 8]?
A: 120 min

Q: And the “shift of the IOP recovery curve relative to the control curve” value [1, 9]?
A: indicates the ocular hypotensive action

Q: For `O=C(CCCN1CCC(O)(c2ccc(Cl)c(C(F)(F)F)c2)CC1)c1ccc(F)cc1` [Clofluperol], which “potency in lowering intraocular pressure compared with timolol” value [1] is on record?
A: at least equipotent to timolol

Q: And the response vs control in vivo at 0.125 % [1, 7]?
A: 59 ± 2%

Q: What about the “Time Delay for IOP Recovery Relative to Control” value [1, 10] of the same compound?
A: 60 min

Q: And the “IOP recovery compared with L-timolol” value [1, 11]?
A: generally equivalent to that of L-timolol

Q: What about the “reduction of aqueous humor formation and intraocular pressure” value (“reduction” for short) [2] of the same compound?
A: reduce significantly

Q: With `CC(C)(C)NC[C@@H](O)COc1nsnc1N1CCOCC1` [D-timolol] as the compound, how does the “intraocular pressure reducing response compared with S isomer” value (intraocular pressure; U.S. Pat. No. 4,521,414) read?
A: substantially equivalent to that of the S isomer

Q: Which response vs control in vivo at 0.5 % [1, 7] does the source give for `O=c1[nH]c2ccccc2n1CCCN1CCC(n2c(=O)[nH]c3cc(Cl)ccc32)CC1` [Domperidone] here?
A: 56 ± 4%

Q: What about the “Time Delay for IOP Recovery Relative to Control” value ([1]; rabbit, 0.5% drug, Alcon electronic applanation tonometer) of the same compound?
A: 210 min

Q: What about the “shift of the IOP recovery curve relative to the control curve” value ([1]; rabbit, 0.5 wt % aqueous solution, Alcon tonometer) of the same compound?
A: indicates the ocular hypotensive action

Q: Which “potency in lowering intraocular pressure compared with timolol” value [1] does the source give for `NC(=O)C1(N2CCCCC2)CCN(CCCC(=O)c2ccc(F)cc2)CC1` [Floropipamide] here?
A: at least equipotent to timolol

Q: What about the response vs control in vivo at 0.25 % [1, 12] of the same compound?
A: 60 ± 3%

Q: What about the “Time Delay for IOP Recovery Relative to Control” value [1, 13] of the same compound?
A: 60 min

Q: What about the “IOP recovery compared with L-timolol” value [1, 11] of the same compound?
A: generally equivalent to that of L-timolol

Q: What about the “reduction” value [2] of the same compound?
A: reduce significantly

Q: With `O=C(CCCN1CCC(O)(c2ccc(Cl)cc2)CC1)c1ccc(F)cc1` [Haloperidol, 4-[4-(p-chlorophenyl)-4-hydroxypiperidino]-4'-fluorobutyrophenone] as the compound, how does the “potency in lowering intraocular pressure compared with timolol” value [1] read?
A: more potency than timolol

Q: What about the response vs control in vivo at 0.125 % [1, 7] of the same compound?
A: 45 ± 2%

Q: What about the response vs control in vivo at 0.25 % [1, 7] of the same compound?
A: 46 ± 2%

Q: And the “Time Delay for IOP Recovery Relative to Control” value [1, 10]?
A: 180 min

Q: And the “shift of the IOP recovery curve relative to the control curve” value ([1]; rabbit, 0.125 wt % aqueous solution)?
A: indicates the ocular hypotensive action

Q: And the “Time Delay for IOP Recovery Relative to Control” value [1, 13]?
A: 270 min

Q: And the “shift of the IOP recovery curve relative to the control curve” value [1, 14]?
A: indicates the ocular hypotensive action

Q: And the “potency in lowering intraocular pressure compared with pilocarpine and timolol” value ([1]; rabbit)?
A: more potent than pilocarpine and timolol

Q: What about the AH formation ([3]; following the initial outflow increase) of the same compound?
A: decrease in aqueous humor formation; also recorded: decrease in AH formation

Q: What about the AH outflow ([3]; initial effect) of the same compound?
A: initial increase in aqueous humor outflow; also recorded: initially caused an increase in AH outflow

Q: What about the “reduction” value [2] of the same compound?
A: reduce significantly

Q: What about the “anti-psychotic dosage level potentially absorbed as a result of glaucoma therapy” value [4] of the same compound?
A: 0.2% to 0.65

Q: What does the source list for `O=C(CCCN1CCC(C(=O)c2ccc(F)cc2)CC1)c1ccc(F)cc1` [Lenperone]?
A: potency in lowering intraocular pressure compared with timolol [1]: at least equipotent to timolol; response vs control in vivo at 0.25 % [1, 12]: 61 ± 2%; Time Delay for IOP Recovery Relative to Control [1, 13]: 60 min; IOP recovery compared with L-timolol [1, 11]: generally equivalent to that of L-timolol; reduction of aqueous humor formation and intraocular pressure [2]: reduce significantly

Q: What does the source list for `Cc1ccc(C2(O)CCN(CCCC(=O)c3ccc(F)cc3)CC2)cc1` [Moperone]?
A: potency in lowering intraocular pressure compared with timolol [1]: more potency than timolol; response vs control in vivo at 0.25 % [1, 12]: 55 ± 1%; Time Delay for IOP Recovery Relative to Control [1, 13]: 180 min; shift of the IOP recovery curve relative to the control curve [1, 14]: indicates the ocular hypotensive action; potency in lowering intraocular pressure compared with pilocarpine and timolol ([1]; rabbit): more potent than pilocarpine and timolol; reduction of aqueous humor formation and intraocular pressure [2]: reduce significantly

Q: Which results are given for `CC(C)(C)NC[C@H](O)COc1nsnc1N1CCOCC1` [Timolol, 1-tert-butyl-amino-3-[(4-morpholino-1,2,5-thiadiazol-3-yl)oxy]-2-propanol]?
A: response vs control in vivo at 0.25 % [1, 12]: 62 ± 4%; Time Delay for IOP Recovery Relative to Control [1, 13]: 60 min; systemic absorption after topical administration to the eye [5]: a small portion is absorbed into the systemic circulation; local anesthetic action [6]: lack of local anesthetic action; tolerance [6]: minimal tolerance

Q: For `CN1CCN(CCCN2c3ccccc3Sc3ccc(C(F)(F)F)cc32)CC1` [Trifluoperazine], which response vs control in vivo at 0.25 % ([1]; Oryctolagus cuniculus, topical, rabbit, 0.25% drug, Alcon tonometer, 100% control IOP 20.2 ± 1.3 mm Hg, 20% saline alone 65 ± 1, read-out: Difference in Max Reduction of IOP) is on record?
A: 49 ± 4%

Q: What about the “Time Delay for IOP Recovery Relative to Control” value [1, 8] of the same compound?
A: 150 min

Q: And the “shift of the IOP recovery curve relative to the control curve” value [1, 9]?
A: indicates the ocular hypotensive action

Q: Which “mechanism: effect on aqueous humor outflow and formation” value (intraocular pressure; comparison with haloperidol) does the source give for `CC[C@@H]1C(=O)OC[C@@H]1Cc1cncn1C` [pilocarpine] here?
A: increases aqueous humor outflow without affecting aqueous humor formation
